# In patent publication US20250276968A1, “8- AND 6-SUBSTITUTED PYRIDOPYRIMIDINE DERIVATIVES AS KRAS INHIBITORS” (Beta Pharma, Inc., priority 2022, published 2025):
# Assay: Pharmacokinetics in male CD-1 mice (IV and PO dosing)
# Type: in vivo
# Settings: mean plasma
# Description: The pharmacokinetic profile of the Example 1 (compound 1a) was determined in male CD-1 mice by WuXi AppTec Co., Ltd., 1318 Wuzhong Avenue, Wuzhong District, Suzhou, China, 215104.
structure (smiles),measurement,setting,value
"C=C(F)C(=O)N1CCN(c2nc(OC[C@@H]3CCCN3C)nc3cc(-c4cccc5cccc(Cl)c45)cnc23)C[C@@H]1CC#N [Example 1, 2-((S)-4-(7-(8-Chloronaphthalen-1-yl)-2-(((S)-1-methylpyrrolidin-2-yl)methoxy)pyrido[3,2-d]pyrimidin-4-yl)-1-(2-fluoroacryloyl)piperazin-2-yl)acetonitrile]",AUCExtra,3 mg/kg IV,9.23%
same,AUMCExtra,3 mg/kg IV,35.2%
same,Tlast,3 mg/kg IV,8.00 h
same,AUCExtra,30 mg/kg PO,17.1%
same,AUMCExtra,30 mg/kg PO,43.8%
same,Tlast,30 mg/kg PO,8.00 h
